Data as given in patent US8383637B2, “2-amino-quinazoline derivatives useful as inhibitors of β-secretase (BACE)” (Jansssen Pharmaceutica N.V., priority 2004, dated 2013).
“And” between values parts separate entries of the source, which are not always exact repeats. Equal values may be shown once. Read-outs that look alike come from different tables or passages of the source.

Key:
β-secretase(BACE) [1] = biological target: T1, β-secretase(BACE) (Homo sapiens, UniProt P56817); assay: BACE Assay-2 (FS1 substrate, IC50 and Ki); format: biochemical; conditions: procedure of Example 159, FS1 substrate; read-out: Ki μM (159)
T1 construct: purchased Panvera

β-secretase(BACE) [2] = biological target: T1, β-secretase(BACE); assay: BACE FS1% Inhibition Assay; format: biochemical; conditions: FS1 substrate
Method in brief: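 Human BACE (4 μg/mL working solution) preincubated 20 min at room temperature with compound, then FS1 substrate (300 μg/mL working solution) added and incubated 1 h at room temperature. Percent inhibition calculated at each compound concentration against blank and vehicle controls.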

[3] = 0.3 μM test compound, read-out: % Inhibition (FS)
[4] = 1 μM test compound, read-out: % Inhibition (FS)
[5] = 3 μM test compound, read-out: % Inhibition (FS)

T1 sequence (P56817 46-501): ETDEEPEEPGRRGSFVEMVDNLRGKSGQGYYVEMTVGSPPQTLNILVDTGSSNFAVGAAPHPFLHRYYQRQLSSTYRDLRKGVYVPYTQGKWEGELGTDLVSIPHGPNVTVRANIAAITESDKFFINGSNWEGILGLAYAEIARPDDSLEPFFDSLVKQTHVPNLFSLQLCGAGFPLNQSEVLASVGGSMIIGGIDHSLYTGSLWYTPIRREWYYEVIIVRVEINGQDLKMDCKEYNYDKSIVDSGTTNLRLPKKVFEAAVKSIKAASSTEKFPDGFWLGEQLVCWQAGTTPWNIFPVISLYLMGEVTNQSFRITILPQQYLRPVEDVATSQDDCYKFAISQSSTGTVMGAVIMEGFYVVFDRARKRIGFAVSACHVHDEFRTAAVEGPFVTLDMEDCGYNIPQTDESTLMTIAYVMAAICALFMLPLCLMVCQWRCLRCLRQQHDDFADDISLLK

Ki (β-secretase(BACE) [1]) | inhibition at 0.3 µM (β-secretase(BACE) [2]; [3]) [%] | inhibition at 1 µM (β-secretase(BACE) [2]; [4]) [%] | inhibition at 3 µM (β-secretase(BACE) [2]; [5]) [%] | SMILES | further results
0.032 µM |  |  |  | Cc1ccccc1-c1ccc2c(c1)CN(CCNC(=O)C1CCCC1)C(N)=N2 [Compound 657, Cyclopentanecarboxylic acid [2-(2-amino-6-o-tolyl-4H-quinazolin-3-yl)-ethyl]-amide] | inhibition at 0.3 µM (β-secretase(BACE) [2]; 0.3 μM test compound, read-out: % Inhibition (FS) 0.3 μM): 88%; inhibition at 1 µM (β-secretase(BACE) [2]; 1 μM test compound, read-out: % Inhibition (FS) 1 μM): 103%; inhibition at 3 µM (β-secretase(BACE) [2]; 3 μM test compound, read-out: % Inhibition (FS) 3 μM): 111%
0.13 µM | 46 | 90 | 116 | COC1CCCC(C(=O)NCCN2Cc3cc(-c4ccccc4Cl)ccc3N=C2N)C1 (stereo not shown) [Compound 692] | 
0.17 µM | 47 | 83 | 109 | Cc1ccccc1-c1ccc2c(c1)CN(CCNC(=O)C1CCOCC1)C(N)=N2 [Compound 693] | 
0.0065 µM | 141 | 143 | 139 | CN(C(=O)CC[C@@H](C1CCOCC1)N1Cc2cc(Oc3ccccc3)ccc2N=C1N)C1CCCCC1 [Compound 709, (S)-enantiomer of 4-(2-Amino-6-phenoxy-4H-quinazolin-3-yl)-N-cyclohexyl-N-methyl-4-(tetrahydro-pyran-4-yl)-butyramide] | 
0.1 µM | 39 | 104 | 134 | CN(C(=O)CCC(C1CCCCC1)N1Cc2cc(Oc3ccccc3)ccc2N=C1N)C1CCC(O)CC1 (stereo not shown) [Compound 712] | 
0.029 µM and 0.022 µM | 100 | 126 | 138 | CN(C(=O)CC[C@@H](C1CCCCC1)N1Cc2cc(Oc3ccccc3)ccc2N=C1N)C1CCC(C(=O)O)CC1 (stereo partly drawn) [Compound 714, 4-{[4-(2-Amino-6-phenoxy-4H-quinazolin-3-yl)-4-(S)-cyclohexyl-butyryl]-methyl-amino}-cyclohexanecarboxylic acid] | % Inhibition (FS) (β-secretase(BACE) [2]; 0.3 μM test compound, 0.3 µM): 98%; % Inhibition (FS) (β-secretase(BACE) [2]; 1 μM test compound, 1 µM): 129%; % Inhibition (FS) (β-secretase(BACE) [2]; 3 μM test compound): 138%
0.3 µM | 72 | 93 | 138 | COc1ccccc1-c1ccc2c(c1)CN([C@@H](CCC(=O)N(C)CCC#N)C1CCCCC1)C(N)=N2 [Compound 720] | 
0.22 µM | 60 | 66 | 127 | COc1ccccc1-c1ccc2c(c1)CN([C@@H](CCC(=O)N(C)CCc1ccccc1)C1CCCCC1)C(N)=N2 [Compound 721, 4-[2-Amino-6-(2-methoxy-phenyl)-4H-quinazolin-3-yl]-4-(S)-cyclohexyl-N-methyl-N-phenethyl-butyramide] | 
0.23 µM | 47 | 63 | 111 | Cc1cc(CN(C)C(=O)CC[C@@H](C2CCCCC2)N2Cc3cc(-c4ccccc4F)ccc3N=C2N)on1 [Compound 723] | 
0.45 µM | 33 | 74 | 126 | CN(CCC#N)C(=O)CC[C@@H](C1CCCCC1)N1Cc2cc(-c3ccccc3F)ccc2N=C1N [Compound 725] | 
0.43 µM |  |  |  | CN(CCc1ccccc1)C(=O)CC[C@@H](C1CCCCC1)N1Cc2cc(-c3ccccc3F)ccc2N=C1N [Compound 727] | % Inhibition (FS) (β-secretase(BACE) [2]; 0.3 μM test compound): 46%; % Inhibition (FS) (β-secretase(BACE) [2]; 1 μM test compound): 80%; % Inhibition (FS) (β-secretase(BACE) [2]; 3 μM test compound): 137%
0.33 µM | 33 | 61 | 100 | CCCN1Cc2cc(Oc3cccc(NCc4ccc(C)cc4)c3)ccc2N=C1N [Compound 729] | 
0.054 µM | 93 | 109 | 114 | CN(C(=O)CC[C@@H](C1CCC2(CC1)OCCO2)N1Cc2cc(Oc3ccccc3)ccc2N=C1N)C1CCCCC1 [Compound 730, S-enantiomer of 4-(2-Amino-6-phenoxy-4H-quinazolin-3-yl)-N-cyclohexyl-4-(1,4-dioxa-spiro[4.5]dec-8-yl)-N-methyl-butyramide] | 
0.087 µM | 56 | 114 | 132 | CN(C(=O)CC[C@@H]([C@H]1CC[C@@H](O)CC1)N1Cc2cc(Oc3ccccc3)ccc2N=C1N)C1CCCCC1 [Compound 731, 4-(2-Amino-6-phenoxy-4H-quinazolin-3-yl)-N-cyclohexyl-4-(cis-4-hydroxy-cyclohexyl)-N-methyl-butyramide] | 
0.01 µM | 135 | 135 | 133 | CN(C(=O)CC[C@@H](C1CCC(=O)CC1)N1Cc2cc(Oc3ccccc3)ccc2N=C1N)C1CCCCC1 [Compound 732, (S)-enantiomer of 4-(2-Amino-6-phenoxy-4H-quinazolin-3-yl)-N-cyclohexyl-N-methyl-4-(4-oxo-cyclohexyl)-butyramide] | 
0.013 µM | 125 | 134 | 135 | NC1=Nc2ccc(Oc3ccccc3)cc2CN1[C@@H](CCC(=O)N(CCO)C1CCCCC1)C1CCCCC1 [Compound 736, (S)-enantiomer of 4-(2-Amino-6-phenoxy-4H-quinazolin-3-yl)-4,N-dicyclohexyl-N-(2-hydroxy-ethyl)-butyramide] | 
0.005 µM | 99 | 104 | 105 | CN(C(=O)CC[C@@H](C1CCCCC1)N1Cc2cc(Oc3ccccc3)ccc2N=C1N)[C@H]1CC[C@@H](C(=O)O)CC1 [Compound 739, (S)-enantiomer of 4-cis-{[4-(2-Amino-6-phenoxy-4H-quinazolin-3-yl)-4-cyclohexyl-butyryl]-methyl-amino}-cyclohexanecarboxylic acid] | 
0.037 µM | 82 | 98 | 104 | CN(C(=O)CC[C@@H](C1CCCCC1)N1Cc2cc(Oc3ccccc3)ccc2N=C1N)[C@H]1CC[C@H](C(=O)O)CC1 [Compound 740] | 
0.168 µM | 17 | 63 | 101 | CCOC(=O)C1CCC(N(C)C(=O)CCC(C2CCOCC2)N2Cc3cc(Oc4ccccc4)ccc3N=C2N)CC1 (stereo not shown) [Compound 742] | 
0.031 µM | 91 | 108 | 112 | COC(=O)[C@H]1CC[C@@H](N(C)C(=O)CC[C@@H](C2CCOCC2)N2Cc3cc(Oc4ccccc4)ccc3N=C2N)CC1 [Compound 744] | 
0.035 µM | 85 | 104 | 112 | CN(C(=O)CC[C@@H](C1CCOCC1)N1Cc2cc(Oc3ccccc3)ccc2N=C1N)[C@H]1CC[C@H](C(=O)O)CC1 [Compound 746] | 
0.017 µM | 113 | 112 | 115 | NC1=Nc2ccc(Oc3ccccc3)cc2CN1[C@@H](CCC(=O)N(CCO)[C@H]1CC[C@@H](C(=O)O)CC1)C1CCCCC1 [Compound 749, (S)-Enantiomer of 4-cis-[[4-(2-Amino-6-phenoxy-4H-quinazolin-3-yl)-4-cyclohexyl-butyryl]-(2-hydroxy-ethyl)-amino]-cyclohexanecarboxylic acid] | 
0.005 µM | 115 | 114 | 116 | NC1=Nc2ccc(Oc3ccccc3)cc2CN1[C@@H](CCC(=O)N(CCO)[C@H]1CC[C@@H](C(=O)O)CC1)C1CCOCC1 [Compound 750, (S)-Enantiomer of 4-cis-[[4-(2-Amino-6-phenoxy-4H-quinazolin-3-yl)-4-(tetrahydro-pyran-4-yl)-butyryl]-(2-hydroxy-ethyl)-amino]-cyclohexanecarboxylic acid] | 
0.025 µM | 112 | 112 | 116 | NC1=Nc2ccc(Oc3ccccc3)cc2CN1[C@@H](CCC(=O)N(CCOCc1ccccc1)[C@H]1CC[C@@H](C(=O)O)CC1)C1CCOCC1 [Compound 751, (S)-enantiomer of 4-[[4-(2-Amino-6-phenoxy-4H-quinazolin-3-yl)-4-(tetrahydro-pyran-4-yl)-butyryl]-(2-benzyloxy-ethyl)-amino]-cyclohexanecarboxylic acid] | 
0.656 µM | 13 | 47 | 93 | CN(C(=O)CC[C@@H](C1CCCCC1)N1Cc2c(cccc2Oc2ccccc2)N=C1N)C1CCCCC1 [Compound 753] | 
0.175 µM | 51 | 91 | 112 | COC(=O)[C@H]1CC[C@@H](N(C)C(=O)CC[C@@H](C2CCCCC2)N2Cc3cc(Oc4ccccc4)ccc3N=C2N)CC1 [Compound 761] | 
0.111 µM | 74 | 102 | 113 | COC(=O)[C@H]1CC[C@@H](N(CCO)C(=O)CC[C@@H](C2CCCCC2)N2Cc3cc(Oc4ccccc4)ccc3N=C2N)CC1 [Compound 762] | 
0.061 µM | 87 | 110 | 116 | CN(C(=O)CC[C@@H](C1CCCCC1)N1Cc2cc(Oc3ccccc3)ccc2N=C1N)[C@H]1CC[C@@H](C(N)=O)CC1 [Compound 764, 4-{[4-(2-Amino-6-phenoxy-4H-quinazolin-3-yl)-4S-cyclohexyl-butyryl]-methyl-amino}-S,R-cyclohexanecarboxylic acid amide] | 
